Reference: US20130324543A1, “REVERSAL OF HIGH BREAST CANCER RISK IN MAMMALS EXPOSED TO ESTROGENIC CHEMICALS IN UTERO BY ADULT EXPOSURE TO HDAC AND DNMT INHIBITORS” (Georgetown University, priority 2012, published 2013)

Assays:
[1] = Body weight and growth of in utero exposed pups; assay type: in vivo, C57BL/6 mice; conditions: mouse, in vivo
Description: (§1) Additions to the basic diet were as follows: 1) cornstarch [control]; 2) EE2 0.1 ppm; 3) BPA 0.155 ppm; 4) GEN 500 ppm.

mammary tumors [2] = assay: Acquired tamoxifen (TAM) resistance of mammary tumors in in utero exposed rats; assay type: in vivo; conditions: 14-week follow-up, 7% in the control group
DNA adducts = assay: MDA-DNA adduct levels in mammary glands of F1-F3 rat offspring; assay type: in vivo, Sprague Dawley rats; conditions: F1-F3 generation offspring
mammary gland = assay: Mammary gland morphology of in utero exposed mice (whole mounts); assay type: in vivo, C57BL/6 mice; conditions: female mice, PND 27
Method: One of the two #4 abdominal mammary glands was dissected and fixed in Carnoy's fixative and processed into whole mounts as previously described (8). The other #4 abdominal gland was snap frozen in liquid nitrogen and stored in −80° C. for future analysis. One of the two thoracic #2-3 mammary glands was fixed in neutral buffered 10% formalin, embedded in paraffin and processed for histology using routine methods, and the other was snap frozen in liquid nitrogen, also stored in −80° C. for future analysis. Uterus was dissected, and one horn with the ovary and vagina attached was fixed in 10% formalin, embedded in paraffin and processed for histology, and the other horn and one ovary were frozen in liquid nitrogen and stored in −80° C.
To assess possible changes in mammary gland morphology, whole amounts of the 4th abdominal glands obtained on PND 27 were processed as previously described (4, 72). The total number of terminal end buds (TEBs) was counted. Identification of TEBs was based on the guidelines established by Russo and Russo (64). The total area (in pixels) of epithelium of the peripubertal (PND 27) mammary glands was analyzed by using ImageJ software (available through NIH web site) on digitized pictures of mammary whole mounts with ducts manually intensified black against white background (shown as an insert in FIG. 16). Ductal elongation (mammary epithelial outgrowth) on PND 50 was measured as the growth in millimeters from the end of the lymph node to the end of the epithelial tree. All the analyses were done blindly using an Olympus dissecting microscope.

mammary tumors [3] = assay: DMBA-induced mammary tumorigenesis in F1-F3 offspring of rat dams fed HF or EE2 diet; assay type: in vivo, Sprague-Dawley rats
Method: Pregnant Sprague-Dawley rats (F0) were fed AI[…] control diet or an isocaloric AI[…] based HF diet, containing 43% energy from corn oil, throughout gestation. Another group of pregnant rats was fed AI[…] diet supplemented with 0.1 ppm ethinyl estradiol (EE2) from day 14 to day 20 of pregnancy. F1 females were mated with F1 males from the same group to produce the F2 generation. The F3 generation was produced in the same manner (FIG. 23). No sibling mating was carried out. […] AI[…] control diet (control, 17% energy from corn oil), isocaloric high fat diet (HF, 43% energy from corn oil) or ethinyl estradiol-supplemented AI[…] diet (EE2, 0.1 ppm). The HF diet was fed for dams through the duration of pregnancy (P) (21 days), while dams were fed EE2 supplemented diet between days P14-20. Once pups (F1) were born, all dams received the control diet. F1 and F2 females (n=8-10) were mated on PND 60 with males from the same group to produce the F2 and F3 generations. All F1 and F2 pregnant dams were fed control diet for the extent of pregnancy. Outcross experiments were also performed: F1 females or males exposed to EE2 or HF diet in utero were crossed with control males or females. […] Tumorigenesis (incidence and multiplicity) was monitored for 20 weeks. […] Louis, Mo.) in 1 ml of peanut oil. […] Tumor growth was measured using a caliper and the length, width, and height of each tumor were recorded. […] Differences in tumor latency and multiplicity were tested by t-test (or Mann-Whitney Rank Sum test) or one-way ANOVA (where appropriate, between groups comparisons after ANOVA were done using Dunn's multi-comparison procedure). Kaplan-Meier survival curves were used to compare differences in tumor incidence, followed by the log-rank test Tumor histopathology was analyzed.

CYP1B1 = CYP1B1 expression (qRT-PCR) in mammary glands of F1-F3 rat offspring; assay type: in vivo, Sprague Dawley rats
Method: Mammary gland tissue obtained from 50-day-old F1-F3 generation offspring (n=5-6 per group per generation) were used. 1 μg of total RNA per sample was used as a template for random primed cDNA synthesis. The cDNA samples were used as templates for qRT-PCR analysis with specific primers for the target gene, rat CYP1B1 using QuantiTect SYBR green PCR kit (Qiagen Inc., Valencia, Calif.) and an ABI Prism 7900 Sequence Detection System. Each sample was run in triplicate. Absolute gene expression levels were determined using Applied Biosystems' SDS2.3 software and the standard curve method. Concentration of each sample was normalized to the reference gene 18S rRNA.

Dnmt1 = assay: Dnmt mRNA expression (qRT-PCR) in mammary glands of F1-F3 rat offspring; assay type: in vivo, Sprague-Dawley rats; conditions: for levels of Dnmt1 mRNA in mammary gland: PND50
Description: Total mammary RNA (n=3-6/group) was used as a template for random primed cDNA synthesis (TaqMan MultiScribe Reverse Transcriptase and RT-PCR Reagents, AppliedBiosystems, Roche, N.J., USA). cDNA samples were then used as templates for quantitative RT PCR analysis with previously described specific primers for the target gene, rat Dnmt1 (124) using QuantiTect SYBR green PCR kit (Qiagen Inc., Valencia, Calif.). Each sample was normalized to the reference gene 18S rRNA (27). Two hundred ng of total RNA per sample (n=3-6) was used as a template for random primed cDNA synthesis with a recombinant Moloney murine leukemia virus reverse transcriptase (TaqMan MultiScribe Reverse Transcriptase and RT-PCR Reagents, AppliedBiosystems, Roche, N.J., USA), according to manufacturer's instructions. An RT enzyme-minus control reaction was also included. The cDNA samples were then used as templates for quantitative real time PCR analysis with previously described specific primers for the target gene, rat Dnmt1(29) using QuantiTect SYBR green PCR kit (Qiagen Inc., Valencia, Calif.) and an ABI Prism 7900 Sequence Detection System. Each sample was run in triplicate, and the qPCR run was repeated twice. Absolute gene expression levels were determined using Applied Biosystems' SDS2.3 software and the standard curve method. Concentration of each sample was normalized to the reference gene 18S rRNA (30), and averages of the three runs are shown. Differences in Dnmt1 mRNA expression levels were tested by two-way ANOVA (after log-transformation), followed by Holm-Sidak multicomparison procedure.

miRNAs = assay: miRNA expression in adult mammary glands of in utero exposed rats; assay type: in vivo
Method: Since several miRNAs are known to be suppressed by E2 in MCF-7 human breast cancer cells (Maillot et al. Cancer Res 2009), we determined whether persistent changes in miRNA expression may be seen in the adult mammary glands of rats exposed to E2 in utero. miRNAs were measured using applied Biosystems TaqManR Array Rodent MicroRNA.

mammary tumors [4] = assay: MPA/DMBA mammary tumorigenesis in mice exposed in utero to EE2, GEN or BPA (Example 5); assay type: in vivo, C57BL/6 mice; conditions: mouse, in vivo
Description: as §1

[5] = F1 generation (daughters) vs controls
[6] = F2 generation (granddaughters) vs controls
[7] = F3 generation (great-granddaughters) vs controls

With `C#C[C@]1(O)CC[C@H]2[C@@H]3CCc4cc(O)ccc4[C@H]3CC[C@@]21C` [EE2, ethinyl estradiol] the “birthweight, or postnatal weight development” value [1] was “did not alter”, the “acquired resistance to TAM” value (mammary tumors [2]) was 50% and the “DNA adduct formation by measuring MDA levels” value (DNA adducts) was “mimicked the findings of changes in CYP1B1 expression”. The “total epithelial area of the glands” value (mammary gland) was “significantly increased”, the Mammary tumor incidence (mammary tumors [3]; [5]) was “higher” and the mammary tumor multiplicity (mammary tumors [3]; [5]) was “higher”. For the same compound, the Mammary tumor incidence (mammary tumors [3]; [6]) was “neither tumor incidence (p=0.68) nor multiplicity (p=0.49) was statistically different”, the mammary tumor multiplicity (mammary tumors [3]; [6]) was “neither tumor incidence (p=0.68) nor multiplicity (p=0.49) was statistically different” and the tumor multiplicity (mammary tumors [3]; F2 outcross EE2♀×C♂ vs controls) was “significantly higher”. The Mammary tumor incidence (mammary tumors [3]; F2 outcross, control ♀ x exposed ♂) was 33%, the Mammary tumor incidence (mammary tumors [3]; F2 outcross, exposed ♀ x control ♂) was 62% and the Mammary tumor incidence (mammary tumors [3]; [7]) was “also higher, but not statistically significant”. The mammary tumor multiplicity (mammary tumors [3]; [7]) was “significantly higher”, the “CYP1B1 expression in normal mammary glands” value (CYP1B1; F1-F3 generation offspring) was “up-regulated” and the “expression levels of CYP1B1” value (CYP1B1; F1 and F2 generations, vs control or HF offspring) was “significantly higher”. The CYP1B1 expression levels (CYP1B1; F3 generation, vs controls) was “higher than in the controls”, the “levels of Dnmt1 mRNA in mammary gland” value (Dnmt1; F1 generation) was “increased” and the “levels of Dnmt1 mRNA in mammary gland” value (Dnmt1; F2 and F3 generation offspring) was “this increase persisted”. For the same compound, the “DNMT3a or 3b expression in the mammary glands” value (Dnmt1; in utero exposed rats, not shown) was “Neither DNMT3a or 3b were altered”, the “expression of miR-26a, miR-101, miR-148, miR-152, miR-194, miR-26a/b” value (miRNAs; mammary glands of rats exposed in utero) was “suppressed” and the “expression of several miRNAs in the mammary gland” value (miRNAs; maternal exposure) was “permanent down-regulation”. For the same compound, the “mammary tumorigenesis (onset of tumor growth and cumulative tumor burden)” value (mammary tumors [4]) was “Enhanced mammary tumorigenesis”.
